In US11919854B2, “P2RX7 modulators in therapy” (Centre national de la recherche scientifique, priority 2018, dated 2024):
“Also recorded” adds a separate entry of the source.

Legend:
mouse P2RX7 (mP2RX7) = biological target: T1, mouse P2RX7 (mP2RX7) (Mus musculus, UniProt Q9Z1M0); assay: Channel activity (Fluo4-AM) and large pore opening (Topro3) by flow cytometry, HEK cells expressing mP2RX7, 1 h BzATP; assay type: cell-based
T1 construct: expressed in transfected cells; host or cells: HEK cells
T1 sequence (Q9Z1M0 1-595): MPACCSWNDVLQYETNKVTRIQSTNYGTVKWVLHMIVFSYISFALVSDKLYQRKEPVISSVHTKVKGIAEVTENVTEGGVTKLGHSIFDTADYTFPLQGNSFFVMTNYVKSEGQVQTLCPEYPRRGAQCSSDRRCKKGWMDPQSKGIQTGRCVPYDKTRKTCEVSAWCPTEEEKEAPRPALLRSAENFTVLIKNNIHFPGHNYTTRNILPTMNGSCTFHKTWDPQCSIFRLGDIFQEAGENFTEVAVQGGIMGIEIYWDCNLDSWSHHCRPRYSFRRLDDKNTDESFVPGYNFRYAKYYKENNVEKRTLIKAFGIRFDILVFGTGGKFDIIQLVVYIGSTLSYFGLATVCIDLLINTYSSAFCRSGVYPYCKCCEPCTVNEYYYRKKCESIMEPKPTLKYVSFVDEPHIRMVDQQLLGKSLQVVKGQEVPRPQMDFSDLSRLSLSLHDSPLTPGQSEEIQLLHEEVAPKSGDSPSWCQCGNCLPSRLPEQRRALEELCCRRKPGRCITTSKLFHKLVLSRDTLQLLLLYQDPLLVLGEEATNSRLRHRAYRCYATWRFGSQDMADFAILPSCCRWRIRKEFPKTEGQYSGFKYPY
Procedure: Calcium channel activity (Fluo4AM probe) and large pore opening (Topro3 probe) were analysed by FACS on mP2RX7 HEK cells. Cells were non stimulated (NS) or treated with BzATP (500 μM) alone or in the presence of HEI2314, HEI2328, HEI2333 or HEI2336 (used at 50 μM).
Calcium channel activity (Fluo4AM probe) and large pore opening (Topro3 probe) were analysed by FACS on mock and mP2RX7 HEK cells. Cells were non stimulated (NS) or treated with BzATP (500 μM) alone or in the presence of HEI2328 used at 50 μM.
2.1. […] Cation channel activity is assayed with the Fluo4 AM (Invitrogen) probe and opening of large pore with Topro3 (Invitrogen). In each experiment 2×10^6 cells were incubated with 50 nM Fluo4-AM for 30 minutes. After washing, cells were treated with 500 μM BzATP (3′-O-(4-benzoyl)benzoyl ATP) for 1 h, or non-treated, in presence of the compounds of the invention at 50 μM. When indicated, the Topro3 probe (8.5 nM) was added during the 1 h stimulation time. Fluorescence was assayed by flow cytometry.

DSS-induced colitis = DSS-induced colitis mouse model; assay type: in vivo, C57BL/6J mice
Procedure: (A) Body weight loss and (B) clinical scores from C57BL/6J treated with 3% DSS during 5 days (J1 to J5), followed by 10 days of normal tap water. The treated group received HEI2328 (ip, 2.3 mg/kg in PBS, 10% DMSO). Data are representative of 2 independent experiments (n=20). Mean±SEM are shown. *, p<0.05; **, p<0.01 (Mann-Whitney test).
The inflammatory index was scored in a longitudinal (A) and a transversal section of the colon (B). Data are representative of 2 independent experiments (n=20). Mean±SEM are shown. *, p<0.05; **, p<0.01 (Mann-Whitney test).
(A-D) Phenotypic analysis of immune cells in spleen of 20 mice treated with HEI2328 or non treated. Data are representative of 2 independent experiments (n=20). Mean±SEM are shown. *, p<0.05; **, p<0.01 (Mann-Whitney test).
All mice received dextran sulfate sodium (3% DSS, TbS consultancy) ad libitum from day 1 to 5 and returned to normal tap water for the following 10 days. Control mice (n=20) were injected daily intraperitoneally with placebo (PBS/10% DMSO), whereas treated mice received 2.3 mg/kg HEI2328 in PBS/10% DMSO. The inventors used the following semi-quantitative clinical score:
Body weight loss was scored as follows: 0, no loss; 1, loss <5%; 2, loss <10%; 3, loss <20%; and 4, loss >20%.
The scores for stool consistency were measured as 0, normal; 1, loose stools; 2, watery diarrhea; or 3, severe watery diarrhea.
Rectal bleeding was scored as 0, no blood; 1, presence of petechia; 2, stools with a trace of blood; or 3, bleeding.
Inflammation score was performed by trained pathologists. Briefly, the severity of inflammation (none, mild, moderate, severe), extent of inflammation (none, mucosa, mucosa, and submucosa, transmural), crypt damage (none, basal to 1/3, basal to 2/3, crypt loss, crypts, and epithelium loss), and percentage of tissue affected by inflammation (0, 25, 50, 75, and 100%) were scored.

human P2RX7 = biological target: T2, human P2RX7 (Homo sapiens, UniProt Q99572); assay: Large pore opening with increasing BzATP in human P2RX7 expressing cells; assay type: cell-based; settings: increasing concentration of BzATP with or without HEI3090
T2 construct: expressed in transfected cells; host or cells: HEK cells
T2 sequence (Q99572 1-595): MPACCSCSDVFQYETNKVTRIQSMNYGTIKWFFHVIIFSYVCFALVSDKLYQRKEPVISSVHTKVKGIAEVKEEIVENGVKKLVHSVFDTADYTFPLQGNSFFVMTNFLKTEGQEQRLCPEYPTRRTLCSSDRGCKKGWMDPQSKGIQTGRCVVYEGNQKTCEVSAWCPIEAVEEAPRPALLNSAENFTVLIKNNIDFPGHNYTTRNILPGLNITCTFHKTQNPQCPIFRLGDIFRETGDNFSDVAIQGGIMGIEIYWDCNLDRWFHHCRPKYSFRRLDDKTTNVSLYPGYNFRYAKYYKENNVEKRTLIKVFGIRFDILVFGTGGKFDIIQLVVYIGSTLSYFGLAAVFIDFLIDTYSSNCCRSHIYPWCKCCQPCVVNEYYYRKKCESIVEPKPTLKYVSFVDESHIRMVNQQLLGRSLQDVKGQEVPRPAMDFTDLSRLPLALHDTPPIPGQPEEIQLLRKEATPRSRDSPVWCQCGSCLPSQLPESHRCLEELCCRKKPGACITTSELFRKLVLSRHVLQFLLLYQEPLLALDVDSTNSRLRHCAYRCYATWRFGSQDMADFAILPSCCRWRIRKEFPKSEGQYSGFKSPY
Procedure: A. Splenocytes from control or p2rx7^exon2 KO mice were isolated and treated with HEI3090 (50 μM) in presence of absence of BzATP (500 μM). B. Large pore opening induced by increasing concentration of BzATP in presence or absence of HEI3090 in human P2RX7 expressing cells.
Indeed, with the same BzATP concentration, more cells are positive for Topro3 staining.

Structure (SMILES)	Topro3 positive cells (mouse P2RX7 (mP2RX7); HEI2328 50 μM combined with BzATP 500 μM, 1 h, mP2RX7 cells)	channel activity (Fluo4-AM) (mouse P2RX7 (mP2RX7); combined with BzATP 500 μM, 1 h stimulation)	Topro3 entry (large pore opening) (mouse P2RX7 (mP2RX7); compound 50 μM, BzATP 500 μM, 1 h, mP2RX7 HEK cells)	channel activity and large pore opening, compound alone (mouse P2RX7 (mP2RX7); used alone (no BzATP) on Mock and mP2RX7 cells, 50 μM)	clinical score (DSS-induced colitis; 2.3 mg/kg ip daily)	recovery of original weight (DSS-induced colitis; 2.3 mg/kg ip daily)	proportion of inflammatory monocytes in spleen (DSS-induced colitis; CD11b+CD11c−Ly6c+Ly6g−CD3−NK1.1−B220−)	reduction of clinical signs compared with classical P2RX7 antagonists (literature) (DSS-induced colitis; comparison with published antagonist data)	inflammatory (histologic) index of colon (DSS-induced colitis; day 15, colon sections)	body weight loss (DSS-induced colitis; days 6 to 9, 2.3 mg/kg ip daily, 3% DSS days 1-5)	myeloid infiltrate in spleen (DSS-induced colitis; treated mice (28 in non treated))	lymphoid population in spleen (DSS-induced colitis; treated mice (67 in non treated))	Treg and Tγδ lymphocytes within lymphoid populations of spleen (DSS-induced colitis; treated vs non treated)	proportion of conventional DC (cDC) and plasmacytoid DC (pDC) in spleen (DSS-induced colitis; treated vs non treated)	large pore opening (Topro3 staining) (human P2RX7)
O=C(NCc1ccc(Cl)cc1Cl)[C@@H]1CCC(=O)N1C(=O)Nc1ccc(Cl)c(Cl)c1 [HEI2328, (S)—N^2-(2,4-Dichlorobenzyl)-N^1-(3,4-dichlorophenyl)-5-oxopyrrolidine-1,2-dicarboxamide]	61%	did not impact channel activity	increase Topro3 entry only in presence of BzATP; also recorded: most active	did induce neither channel activity nor large pore opening	more healthy and recovered quicker than control mice	recovered their original weight after 15 days	statistically decreased	more efficient than classical P2RX7 antagonists	very low inflammatory index	lost statistically less weight than the control group	17%	76%	increased	did not modify	
O=C(NCc1ccc(Cl)cc1Cl)[C@@H]1CCC(=O)N1C(=O)Nc1ccc(Cl)nc1 [HEI3090, (S)—N^1-(6-Chloropyridin-3-yl)-N^2-(2,4-dichlorobenzyl)-5-oxopyrrolidine-1,2-dicarboxamide]															enhanced large pore opening in presence of BzATP
